Experimental data from patent US20230357233A1, “HETEROARYL COMPOUNDS, PREPARATION METHODS AND USES THEREOF” (INVENTISBIO CO., LTD., priority 2020, published 2023).

How the values were obtained:
Ba/F3_KRAS^G12D cells = Ba/F3_KRAS^G12D cells (Homo sapiens, UniProt P01116, G12D, cells depend on it); assay: Ba/F3 KRAS^G12D cell proliferation assay (cell-titer Glo); format: cell-based; conditions: cell growth inhibition, treated with the compounds for 3 days, read-out: BaF3_KRAS^G12D IC50
Procedure: Cells were seeded at a density of 5×10^3 per well into 96-well plate and incubated overnight. Serial diluted compounds were added to each well. Cells were treated with the compounds for 3 days, after which cell-titer Glo reagent (Promega #G7572) was used to assess cell proliferation. The luminescence signal was then collected on Tecan Spark plate reader. […] Cell growth inhibition of IC50 is calculated with the equation of Y=Bottom+(Top−Bottom)/(1+10^((LogIC50−X)*HillSlope))

[1] = molecular target: recombinant human KRAS^G12D protein (Homo sapiens, UniProt P01116, G12D); assay: Temperature-dependent Fluorescence (TdF) KRAS^G12D protein binding assay; conditions: 6 μM KRAS^G12D Protein, 10 μM compound, Sypro Orange; Kd calculated from fluorescent shift
Procedure: The TdF assay was conducted in the 96-well-based real-time fluorescence plate reader (ABI 7500 or Roche LightCycler 480). Fluorescent dye Sypro Orange (Sigma) was used to monitor the protein folding-unfolding transition. Protein-compound binding was gauged by the shift in the unfolding transition temperature (ΔTm) acquired with and without compound. […] The sample plate was heated from 30° C. to 95° C. with a thermal ramping rate of […], taking a fluorescence reading every 0.4° C. using a CY3 channel matching the excitation and emission wavelengths of Sypro Orange (λ ex 470 nm; λ em 570 nm). Binding affinity (Kd value) was calculated based on the degree of fluorescent shift of the protein with and without compound.

Ba/F3_KRAS^G12D cells, sequence (P01116 whole entry G12D): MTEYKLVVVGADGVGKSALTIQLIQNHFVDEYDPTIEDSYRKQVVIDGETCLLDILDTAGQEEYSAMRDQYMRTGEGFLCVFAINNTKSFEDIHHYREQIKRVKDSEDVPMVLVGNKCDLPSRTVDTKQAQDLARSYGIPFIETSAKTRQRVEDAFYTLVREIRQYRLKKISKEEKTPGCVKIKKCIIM
recombinant human KRAS^G12D protein, sequence (P01116 1-188 isoform P01116-2 G12D): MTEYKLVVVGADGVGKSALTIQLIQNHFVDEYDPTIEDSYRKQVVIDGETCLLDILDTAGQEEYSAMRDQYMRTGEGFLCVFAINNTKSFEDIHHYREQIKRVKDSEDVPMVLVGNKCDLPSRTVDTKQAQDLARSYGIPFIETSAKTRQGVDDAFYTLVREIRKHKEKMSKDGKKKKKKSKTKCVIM

| Compound | GI50 (Ba/F3_KRAS^G12D cells) | Kd [1] |
| --- | --- | --- |
| CN(C)CCCOc1nc(N2CC3CCC(C2)N3)c2cc(Cl)c(-c3cccc4ccccc34)nc2n1 [Compound 4] | > 5 µM | > 5 µM |
| Fc1cc2c(N3CCNCC3)nc(OCC34CCCN3CCC4)nc2nc1-c1cccc2cccc(Cl)c12 [Compound 5] | > 5 µM | > 5 µM |
| Fc1c(-c2cccc3cccc(Cl)c23)ncc2c(N3CC4CCC(C3)N4)nc(OCC34CCCN3CCC4)nc12 [Compound 6] | < 0.5 µM | ≤ 0.5 µM |
| Fc1cc2c(N3CC4CCC(C3)N4)nc(OCC34CCCN3CCC4)nc2nc1-c1cccc2cccc(Cl)c12 [Compound 7] | > 5 µM | > 5 µM |
| CN1CCC[C@H]1COc1nc(N2CC3CCC(C2)N3)c2cc(F)c(-c3cccc4cccc(Cl)c34)nc2n1 [Compound 8] | 0.5 to 5 µM | > 5 µM |
| Fc1cc2c(N3C4CCC3CNC4)nc(OCC34CCCN3CCC4)nc2nc1-c1cccc2cccc(Cl)c12 [Compound 9] | > 5 µM | > 5 µM |
| Oc1cc(-c2nc3nc(OCC45CCCN4CCC5)nc(N4CC5CCC(C4)N5)c3cc2Cl)c2ccccc2c1 [Compound 10] | > 5 µM | > 5 µM |
| Nc1cccc(F)c1-c1nc2nc(OCC34CCCN3CCC4)nc(N3CC4CCC(C3)N4)c2cc1Cl [Compound 11] | > 5 µM | > 5 µM |
| Oc1cc(-c2ncc3c(N4CC5CCC(C4)N5)nc(OCC45CCCN4CCC5)nc3c2F)c2ccccc2c1 [Compound 12] | 0.5 to 5 µM | ≤ 0.5 µM |
| C[C@H]1CNCCN1c1nc(OCCN(C)C)cc2nc(-c3ccccc3F)c(F)cc12 [Compound 13] | 0.5 to 5 µM | > 5 µM |
| Fc1cc2c(N3CC4CCC(C3)N4)nc(OCC34CCCN3CCC4)cc2nc1-c1cccc2ccccc12 [Compound 14] | 0.5 to 5 µM | > 5 µM |
| CN(C)CCCOc1nc(N2CC3CCC(C2)N3)c2cc(F)c(-c3cccc4cccc(Cl)c34)nc2n1 [Compound 15] | > 5 µM | > 5 µM |
| Fc1ccccc1-c1nc2cc(OCC34CCCN3CCC4)nc(N3CC4CCC(C3)N4)c2cc1F [Compound 16] | 0.5 to 5 µM | > 5 µM |
| CN(C)CCCn1c(=O)nc(N2CC3CCC(C2)N3)c2cnc(-c3cccc4cccc(Cl)c34)c(F)c21 [Compound 17] | > 5 µM | > 5 µM |
| c1ccc2c(-c3ncc4c(N5CCNCC5)nc(OCC56CCCN5CCC6)cc4n3)cccc2c1 [Compound 18] | 0.5 to 5 µM | > 5 µM |
| CN(C)CCCn1c(=O)nc(N2CC3CCC(C2)N3)c2cc(F)c(-c3cccc4cccc(Cl)c34)nc21 [Compound 19] | > 5 µM | > 5 µM |
| CN(C)CCOc1nc(N2C3CCC2CNC3)c2cc(F)c(-c3ccccc3F)nc2c1-c1cccnc1C1CC1 [Compound 20] | 0.5 to 5 µM | > 5 µM |
| c1ccc2c(-c3ncc4c(N5CC6CCC(C5)N6)nc(OCC56CCCN5CCC6)cc4n3)cccc2c1 [Compound 21] | 0.5 to 5 µM | > 5 µM |
| Nc1cccc(F)c1-c1ncc2c(N3CCNCC3)nc(OCC34CCCN3CCC4)cc2n1 [Compound 22] | > 5 µM | > 5 µM |
| CN(C)CCCOc1cc2nc(-c3cccc4ccccc34)ncc2c(N2CC3CCC(C2)N3)n1 [Compound 23] | 0.5 to 5 µM | > 5 µM |
| CN(C)CCOc1nc(N2CCNCC2)c2cc(F)c(-c3ccccc3F)nc2c1-c1cccnc1C1CC1 [Compound 24] | 0.5 to 5 µM | > 5 µM |
| CN(C)CCCOc1nc(N2CC3CCC(C2)N3)c2cnc(-c3cccc4ccccc34)nc2c1Cl [Compound 25] | 0.5 to 5 µM | > 5 µM |
| Nc1cccc(F)c1-c1ncc2c(N3CC4CCC(C3)N4)nc(OCC34CCCN3CCC4)cc2n1 [Compound 26] | > 5 µM | > 5 µM |
| CN(C)CCOc1nc(N2CC3CCC(C2)N3)c2cc(F)c(-c3ccccc3F)nc2c1-c1cccnc1C1CC1 [Compound 27] | 0.5 to 5 µM | > 5 µM |
| Fc1ccccc1-c1nc2c(-c3cccnc3C3CC3)c(OCC34CCCN3CCC4)nc(N3CC4CCC(C3)N4)c2cc1F [Compound 28] | 0.5 to 5 µM | > 5 µM |
| C[C@H]1CNCCN1c1nc(OCCN(C)C)c(-c2cccnc2C2CC2)c2nc(-c3cccc4ccccc34)c(F)cc12 [Compound 29] | 0.5 to 5 µM | > 5 µM |
| Fc1c(-c2cccc3cccc(Cl)c23)ncc2c(N3CC4CCC(C3)N4)nc(OC[C@@]34CCCN3C[C@H](F)C4)nc12 [Compound 30] | < 0.5 µM | ≤ 0.5 µM |
| Fc1c(-c2cccc3cccc(Cl)c23)nc(OCC23CCCN2CCC3)c2ccc(N3CCNCC3)nc12 [Compound 31] | 0.5 to 5 µM | > 5 µM |

| Compound | GI50 (Ba/F3_KRAS^G12D cells) | Kd [1] |
| --- | --- | --- |
| Oc1cc(-c2ncc3c(N4CC5CCC(C4)N5)nc(OCC45CCCN4CCC5)nc3c2F)c2c(Cl)cccc2c1 [Compound 32] | < 0.5 µM | ≤ 0.5 µM |
| CN1CCC[C@H]1Cn1c(=O)nc(N2CC3CCC(C2)N3)c2cnc(-c3cccc4cccc(Cl)c34)c(F)c21 [Compound 33] | > 5 µM | > 5 µM |
| Oc1cc(-c2nc3cc(OCC45CCCN4CCC5)nc(N4CC5CCC(C4)N5)c3cc2Cl)c2c(Cl)cccc2c1 [Compound 34] | > 5 µM | > 5 µM |
| CN1CCC[C@H]1Cn1c(=O)nc(N2CCNCC2)c2cnc(-c3cccc4cccc(Cl)c34)c(F)c21 [Compound 35] | > 5 µM | > 5 µM |
| Oc1cc(-c2ncc3c(N4CC5CCC(C4)N5)nc(OC[C@@]45CCCN4C[C@H](F)C5)nc3c2F)c2c(Cl)cccc2c1 [Compound 36] | < 0.5 µM | ≤ 0.5 µM |
| Nc1cccc(F)c1-c1nc2cc(OCC34CCCN3CCC4)nc(N3CC4CCC(C3)N4)c2cc1Cl [Compound 37] | > 5 µM | > 5 µM |
| CN1CCC[C@H]1Cn1c(=O)nc(N2CCNCC2)c2cc(F)c(-c3cccc4cccc(Cl)c34)nc21 [Compound 38] | > 5 µM | > 5 µM |
| CN1CCC[C@H]1Cn1c(=O)nc(N2CC3CCC(C2)N3)c2cc(F)c(-c3cc(O)cc4ccccc34)nc21 [Compound 39] | > 5 µM | > 5 µM |
| CN1CCC[C@H]1Cn1c(=O)nc(N2CC3CCC(C2)N3)c2cnc(-c3cc(O)cc4ccccc34)c(F)c21 [Compound 40] | > 5 µM | > 5 µM |
| CN1CCC[C@H]1Cn1c(=O)nc(N2CC3CCC(C2)N3)c2cc(F)c(-c3cc(O)cc4cccc(Cl)c34)nc21 [Compound 41] | > 5 µM | > 5 µM |
| CCN1CCN(c2nc(OCC34CCCN3CCC4)nc3c(F)c(-c4cc(O)cc5cccc(Cl)c45)ncc23)CC1 [Compound 42] | 0.5 to 5 µM | > 5 µM |
| Oc1cc(-c2nc3cc(OC[C@@]45CCCN4C[C@H](F)C5)nc(N4CC5CCC(C4)N5)c3cc2Cl)c2c(Cl)cccc2c1 [Compound 43] | 0.5 to 5 µM | > 5 µM |
| CN1CCC[C@H]1Cn1c(=O)nc(N2CC3CCC(C2)N3)c2cnc(-c3cc(O)cc4cccc(Cl)c34)c(F)c21 [Compound 44] | > 5 µM | > 5 µM |
| CN1CCC[C@H]1Cn1c(=O)nc(N2C[C@H]3CC[C@@H](C2)N3)c2cc(F)c(-c3cccc4cccc(Cl)c34)nc21 [Compound 45] | > 5 µM | > 5 µM |
| Clc1cccc2cccc(-c3ncc4c(N5CC6CCC(C5)N6)nc(OCC56CCCN5CCC6)cc4n3)c12 [Compound 46] | 0.5 to 5 µM | > 5 µM |
| N#Cc1cccc2cc(O)cc(-c3ncc4c(N5CC6CCC(C5)N6)nc(OCC56CCCN5CCC6)nc4c3F)c12 [Compound 47] | > 5 µM | ≤ 0.5 µM |
| Clc1cccc2cccc(-c3ncc4c(N5CCNCC5)nc(OCC56CCCN5CCC6)cc4n3)c12 [Compound 48] | 0.5 to 5 µM | > 5 µM |
| CN(C)CCOc1cc2nc(-c3ccccc3F)c(F)cc2c(N2C3CCC2CNC3)n1 [Compound 49] | 0.5 to 5 µM | > 5 µM |
| CN(C)C1CN(c2nc(-c3cccc4cccc(Cl)c34)c(F)c3nc(N4CCNCC4)ccc23)C1 [Compound 50] | 0.5 to 5 µM | > 5 µM |
| Oc1cc(-c2ncc3c(N4CC5CCC(C4)N5)nc(OCC45CCCN4CCC5)cc3n2)c2c(Cl)cccc2c1 [Compound 51] | > 5 µM | > 5 µM |
| Clc1cccc2cccc(-c3ncc4c(N5C6CCC5CNC6)nc(OCC56CCCN5CCC6)cc4n3)c12 [Compound 52] | 0.5 to 5 µM | > 5 µM |
| CN1CCC[C@@H]1COc1nc(-c2cccc3cccc(Cl)c23)c(F)c2nc(N3CCNCC3)ccc12 [Compound 53] | < 0.5 µM | > 5 µM |
| CN1CCC[C@@H]1COc1nc(-c2cccc3ccccc23)c(F)c2nc(N3CCNCC3)ccc12 [Compound 54] | 0.5 to 5 µM | > 5 µM |
| Oc1cc(-c2ncc3c(C4CCNCC4)nc(OCC45CCCN4CCC5)nc3c2F)c2c(Cl)cccc2c1 [Compound 55] | > 5 µM | > 5 µM |
| CCN1CCC(c2nc(OCC34CCCN3CCC4)nc3c(F)c(-c4cc(O)cc5cccc(Cl)c45)ncc23)CC1 [Compound 56] | 0.5 to 5 µM | > 5 µM |
| Oc1cc(-c2nc(OCC34CCCN3CCC4)c3ccc(N4CCNCC4)nc3c2F)c2c(Cl)cccc2c1 [Compound 57] | > 5 µM | > 5 µM |
| Cc1cccc2cc(O)cc(-c3ncc4c(N5CC6CCC(C5)N6)nc(OC[C@@]56CCCN5C[C@H](F)C6)c(Cl)c4n3)c12 [Compound 58] | 0.5 to 5 µM | 0.5 to 5 µM |
